Test results: PubChem BioAssay (NCI)
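Cultured in 96-well plates, cells were exposed to test compound for 48 hours across five concentrations. GI50 is the concentration that inhibits growth by half. TGI: concentration producing complete growth inhibition.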

What was measured:
Experiment in all cases: NCI anticancer screen, dose series, 48 h; in the data active = GI50 below about 0.43 µM; inactive = the rest
[1] = test system: OVCAR-8 ovarian
[2] = test system: EKVX NSCLC
[3] = test system: OVCAR-3 ovarian
[4] = test system: MCF7 breast
[5] = test system: PC-3 prostate
[6] = test system: COLO 205 colon
[7] = test system: NCI-H23 lung
[8] = test system: HCT-15 colon
[9] = test system: M14 melanoma
[10] = test system: K-562 leukemia
[11] = test system: SNB-75 CNS
[12] = test system: SF-539 CNS
[13] = test system: SNB-19 CNS
[14] = test system: SK-MEL-28 melanoma
[15] = test system: NCI-H460 lung
[16] = test system: OVCAR-5 ovarian
[17] = test system: SF-268 CNS
[18] = test system: BT-549 breast
[19] = test system: HOP-62 NSCLC
[20] = test system: HCT-116 colon
[21] = test system: TK-10 renal
[22] = test system: IGROV1 ovarian
[23] = test system: SF-295 CNS
[24] = test system: NCI-H226 lung
[25] = test system: HT29 colon
[26] = test system: MDA-MB-231 breast
[27] = test system: HL-60(TB) leukemia
[28] = test system: UACC-62 melanoma
[29] = test system: ACHN renal
[30] = test system: U251 CNS
[31] = test system: NCI-H522 lung
[32] = test system: HCC-2998 colon
[33] = test system: LOX IMVI melanoma
[34] = test system: SK-MEL-5 melanoma
[35] = test system: CAKI-1 renal
[36] = test system: SK-OV-3 ovarian
[37] = test system: HOP-92 NSCLC
[38] = test system: RPMI-8226 leukemia
[39] = test system: UO-31 renal
[40] = test system: HS 578T breast
[41] = test system: A498 renal
[42] = test system: CCRF-CEM leukemia
[43] = test system: RXF 393 renal
[44] = test system: MALME-3M melanoma
[45] = test system: T-47D breast
[46] = test system: MDA-MB-435
[47] = test system: 786-0 renal
[48] = test system: OVCAR-4 ovarian
[49] = test system: SK-MEL-2 melanoma
[50] = test system: SW-620 colon
[51] = test system: SN12C renal
[52] = test system: SR leukemia
[53] = test system: UACC-257 melanoma
[54] = test system: DU-145 prostate
[55] = test system: MOLT-4 leukemia
[56] = test system: A549 NSCLC
[57] = test system: NCI/ADR-RES ovarian
[58] = test system: KM12 colon

CN[C@@H](C)C(=O)N[C@H]1CCS[C@H]2CC(C)(C)[C@@H](C(=O)N[C@H]3c4ccccc4C[C@H]3OCC#CC#CCO[C@@H]3Cc4ccccc4[C@@H]3NC(=O)[C@H]3N4C(=O)[C@@H](NC(=O)[C@H](C)NC)CCS[C@H]4CC3(C)C)N2C1=O
2.33 µM: TGI [27]
0.0239 µM: TGI [26]
> 22.1 µM: TGI [52]
active: GI50 [12] 0.0118 µM | GI50 [18] 0.00762 µM | GI50 [26] < 0.005 µM | GI50 [27] 0.0759 µM | GI50 [36] < 0.005 µM | GI50 [42] 0.0966 µM | GI50 [43] 0.423 µM | GI50 [44] 0.00951 µM | GI50 [48] 0.0146 µM | GI50 [49] 0.174 µM | GI50 [52] 0.0264 µM
21.4 µM: TGI [11]
13.9 µM: TGI [49]
32 µM: TGI [31]
12.3 µM: TGI [42]
5.24 µM: TGI [43]
> 36 µM: TGI [38]
> 33.4 µM: TGI [10]
14.3 µM: TGI [37]
2.4 µM: TGI [12]
< 0.005 µM: TGI [36]
17.8 µM: TGI [4]
0.203 µM: TGI [48]
> 16.8 µM: TGI [34]
inactive: GI50 [1] 35.9 µM | GI50 [2] > 38.9 µM | GI50 [3] 12 µM | GI50 [4] 5.87 µM | GI50 [5] > 28.4 µM | GI50 [6] 25.2 µM | GI50 [7] > 32 µM | GI50 [8] > 50 µM | GI50 [9] > 50 µM | GI50 [10] 12.9 µM | GI50 [11] 1.99 µM | GI50 [13] > 50 µM | GI50 [14] > 46.6 µM | GI50 [15] 24.6 µM | GI50 [16] > 50 µM | GI50 [17] 41.9 µM | GI50 [19] 3.72 µM | GI50 [20] > 28.8 µM | GI50 [21] > 50 µM | GI50 [22] 32.1 µM | GI50 [23] > 50 µM | GI50 [24] > 50 µM | GI50 [25] 20.2 µM | GI50 [28] > 50 µM | GI50 [29] > 50 µM | GI50 [30] > 50 µM | GI50 [31] 7.38 µM | GI50 [32] 19.5 µM | GI50 [33] 13.8 µM | GI50 [34] 4.75 µM | GI50 [35] > 50 µM | GI50 [37] 2.99 µM | GI50 [38] 2.25 µM | GI50 [39] > 50 µM | GI50 [40] 15.5 µM | GI50 [41] > 50 µM | GI50 [45] 29.9 µM | GI50 [46] > 23 µM | GI50 [47] > 50 µM | GI50 [50] > 50 µM | GI50 [51] > 46.9 µM | GI50 [53] > 50 µM | GI50 [54] 20.6 µM | GI50 [55] 9.86 µM | GI50 [56] > 50 µM | GI50 [57] > 50 µM | GI50 [58] 30.5 µM
> 43.9 µM: TGI [3]
22.4 µM: TGI [55]
> 50 µM: TGI [1] | TGI [2] | TGI [5] | TGI [6] | TGI [7] | TGI [8] | TGI [9] | TGI [13] | TGI [14] | TGI [15] | TGI [16] | TGI [17] | TGI [19] | TGI [20] | TGI [21] | TGI [22] | TGI [23] | TGI [24] | TGI [25] | TGI [28] | TGI [29] | TGI [30] | TGI [32] | TGI [33] | TGI [35] | TGI [39] | TGI [40] | TGI [41] | TGI [45] | TGI [46] | TGI [47] | TGI [50] | TGI [51] | TGI [53] | TGI [54] | TGI [56] | TGI [57] | TGI [58]
6.38 µM: TGI [18]
0.115 µM: TGI [44]
